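Grown in 96-well plates, cells were treated for 48 hours with each compound at five concentrations. Insufficient inhibition: endpoint recorded as highest concentration tested. At the TGI there is no net growth.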
Experiments:
Assay in all cases: growth of human tumour cells (NCI), 48 h
COLO 205 colon = test system: COLO 205 colon
SK-MEL-28 melanoma = test system: SK-MEL-28 melanoma
U251 CNS = test system: U251 CNS
MCF7 breast = test system: MCF7 breast
SNB-19 CNS = test system: SNB-19 CNS
HOP-62 NSCLC = test system: HOP-62 NSCLC
HCT-15 colon = test system: HCT-15 colon
CCRF-CEM leukemia = test system: CCRF-CEM leukemia
OVCAR-8 ovarian = test system: OVCAR-8 ovarian
SK-OV-3 ovarian = test system: SK-OV-3 ovarian
DU-145 prostate = test system: DU-145 prostate
NCI-H23 lung = test system: NCI-H23 lung
SW-620 colon = test system: SW-620 colon
CAKI-1 renal = test system: CAKI-1 renal
IGROV1 ovarian = test system: IGROV1 ovarian
LOX IMVI melanoma = test system: LOX IMVI melanoma
A498 renal = test system: A498 renal
HOP-92 NSCLC = test system: HOP-92 NSCLC
NCI-H460 lung = test system: NCI-H460 lung
OVCAR-4 ovarian = test system: OVCAR-4 ovarian

COC(=O)C1C(OC(=O)C(Cl)(c2ccccc2)c2ccccc2)CC2CCC1N2C (stereo not given)
TGI (COLO 205 colon): > 100 µM
TGI (SK-MEL-28 melanoma): > 100 µM
TGI (U251 CNS): > 100 µM
TGI (MCF7 breast): > 100 µM
TGI (SNB-19 CNS): > 100 µM
TGI (HOP-62 NSCLC): > 100 µM
TGI (HCT-15 colon): > 100 µM
TGI (CCRF-CEM leukemia): > 100 µM
TGI (OVCAR-8 ovarian): > 100 µM
TGI (SK-OV-3 ovarian): > 100 µM
TGI (DU-145 prostate): > 100 µM
TGI (NCI-H23 lung): > 100 µM
TGI (SW-620 colon): > 100 µM
TGI (CAKI-1 renal): > 100 µM
TGI (IGROV1 ovarian): > 100 µM
TGI (LOX IMVI melanoma): > 100 µM

COc1cc(-c2cc(=O)c3c(O)c(OC)c(OC)c(OC)c3o2)ccc1O
TGI (SK-MEL-28 melanoma): > 100 µM
TGI (U251 CNS): > 100 µM
TGI (A498 renal): 17.6 µM
TGI (SNB-19 CNS): > 100 µM
TGI (HOP-62 NSCLC): 77.3 µM
TGI (HCT-15 colon): 43.1 µM
TGI (HOP-92 NSCLC): 40.1 µM
TGI (CCRF-CEM leukemia): > 100 µM
TGI (OVCAR-8 ovarian): 48.4 µM
TGI (SK-OV-3 ovarian): 76 µM
TGI (NCI-H23 lung): > 100 µM
TGI (SW-620 colon): > 100 µM
TGI (IGROV1 ovarian): 37.2 µM
TGI (NCI-H460 lung): 69.2 µM
TGI (LOX IMVI melanoma): 68.8 µM

O=c1oc2ccccc2c(O)c1C1c2c(c3ccccc3oc2=O)Oc2c1c(=O)oc1ccccc21
TGI (COLO 205 colon): > 100 µM
TGI (OVCAR-4 ovarian): > 100 µM
TGI (SK-MEL-28 melanoma): 97.8 µM
TGI (U251 CNS): > 100 µM
TGI (A498 renal): > 100 µM
TGI (SNB-19 CNS): > 100 µM
TGI (HOP-62 NSCLC): > 100 µM
TGI (HCT-15 colon): > 100 µM
TGI (HOP-92 NSCLC): > 100 µM
TGI (CCRF-CEM leukemia): > 100 µM
TGI (OVCAR-8 ovarian): > 100 µM
TGI (DU-145 prostate): > 100 µM
TGI (NCI-H23 lung): 89.2 µM
TGI (SW-620 colon): > 100 µM
TGI (CAKI-1 renal): 69.3 µM
TGI (IGROV1 ovarian): > 100 µM
TGI (NCI-H460 lung): 31.7 µM
TGI (LOX IMVI melanoma): > 100 µM

O=C1C(C(c2ccccc2)N2CCOCC2)=C(O)C(c2ccccc2)N1c1ccccc1 (stereo not given)
TGI (COLO 205 colon): > 10 µM
TGI (SK-MEL-28 melanoma): > 10 µM
TGI (U251 CNS): > 10 µM
TGI (MCF7 breast): > 10 µM
TGI (A498 renal): > 10 µM
TGI (SNB-19 CNS): > 10 µM
TGI (HOP-62 NSCLC): > 10 µM
TGI (HCT-15 colon): > 10 µM
TGI (CCRF-CEM leukemia): > 10 µM
TGI (OVCAR-8 ovarian): > 10 µM
TGI (SK-OV-3 ovarian): > 10 µM
TGI (DU-145 prostate): > 10 µM
TGI (NCI-H23 lung): > 10 µM
TGI (SW-620 colon): > 10 µM
TGI (CAKI-1 renal): > 10 µM
TGI (IGROV1 ovarian): > 10 µM
TGI (NCI-H460 lung): > 10 µM
TGI (LOX IMVI melanoma): > 10 µM

CCCc1c[nH]c(-c2ccc(-c3cc(CCC)c(C=O)[nH]3)s2)c1
TGI (OVCAR-4 ovarian): 35.2 µM
TGI (SK-MEL-28 melanoma): 26.5 µM
TGI (U251 CNS): 29.2 µM
TGI (A498 renal): 20.5 µM
TGI (SNB-19 CNS): 37 µM
TGI (HCT-15 colon): 29.6 µM
TGI (CCRF-CEM leukemia): 91.4 µM
TGI (OVCAR-8 ovarian): 26.5 µM
TGI (SK-OV-3 ovarian): 32.8 µM
TGI (NCI-H23 lung): 42.4 µM
TGI (SW-620 colon): 33.7 µM
TGI (IGROV1 ovarian): 45.5 µM
TGI (NCI-H460 lung): 16.9 µM
TGI (LOX IMVI melanoma): 27.7 µM

O=[As](O)(O)c1ccc(N=Nc2ccc([As](=O)(O)O)cc2)cc1
TGI (OVCAR-4 ovarian): > 100 µM
TGI (SK-MEL-28 melanoma): > 100 µM
TGI (U251 CNS): > 100 µM
TGI (A498 renal): > 100 µM
TGI (SNB-19 CNS): > 100 µM
TGI (HOP-62 NSCLC): > 100 µM
TGI (HCT-15 colon): > 100 µM
TGI (HOP-92 NSCLC): > 100 µM
TGI (OVCAR-8 ovarian): > 100 µM
TGI (DU-145 prostate): > 100 µM
TGI (NCI-H23 lung): > 100 µM
TGI (SW-620 colon): > 100 µM
TGI (CAKI-1 renal): > 100 µM
TGI (IGROV1 ovarian): > 100 µM
TGI (NCI-H460 lung): > 100 µM
TGI (LOX IMVI melanoma): > 100 µM

Cc1ccc(/C(=C\C(=O)C(=O)NC23CC4CC(CC(C4)C2)C3)Sc2ccccc2)cc1
TGI (COLO 205 colon): > 10 µM
TGI (OVCAR-4 ovarian): > 10 µM
TGI (SK-MEL-28 melanoma): > 10 µM
TGI (U251 CNS): > 10 µM
TGI (MCF7 breast): > 10 µM
TGI (A498 renal): > 10 µM
TGI (HOP-62 NSCLC): > 10 µM
TGI (HCT-15 colon): > 10 µM
TGI (CCRF-CEM leukemia): > 10 µM
TGI (OVCAR-8 ovarian): > 10 µM
TGI (SK-OV-3 ovarian): > 10 µM
TGI (DU-145 prostate): > 10 µM
TGI (NCI-H23 lung): > 10 µM
TGI (SW-620 colon): > 10 µM
TGI (CAKI-1 renal): > 10 µM
TGI (IGROV1 ovarian): > 10 µM
TGI (NCI-H460 lung): > 10 µM
TGI (LOX IMVI melanoma): > 10 µM
